From publication PMC7395176, “Retromer stabilization results in neuroprotection in a model of Amyotrophic Lateral Sclerosis” (Nature Communications, 2020)

Key:
[1] = Brain uptake of compound 2a by LC-MS/MS in C57BL/6J mice; type: in vivo; conditions: C57BL6J mice, daily intraperitoneal injections 10 mg/kg; 1, 7, 15, 30 days
Protocol: Compounds 2a, 4a, and standard R55/1 (10 mg/Kg) were intraperitoneally injected in C57BL6J mice daily. After 1 week, mice were sacrificed, saline perfused to avoid CNS contamination by compounds in blood circulation, and SC protein extracts were assayed by WB. […] Therefore, phenyl-1,3-bis-guanylhydrazone 2a was selected as an early lead.
Quantification of compound 2a in CNS extracts of C57BL/6J mice was performed at ProMeFa facility (Proteomics and Metabolomics Facility) of San Raffaele Scientific Institute. Wild-type C57BL/6J males mice (P60) were intraperitoneally injected with compound 2a (10 mg/kg) or vehicle, daily. We sacrificed mice at the following time points: 1, 7, 15, and 30 days. Before brains collection, mice received saline perfusion. Brains were weighted (~350 mg each) and rapidly frozen at −80 °C. The extraction was performed with methanol and each biological sample was resuspended in 60 µl of LC/MS grade water and 5 µL were analyzed by LC-MS/MS using the UPLC 1290 (Agilent Technologies) coupled to the TripleTOF 5600+ mass spectrometer (SCIEX). […] Calibration curve in brain was constructed by plotting the peak area versus corresponding quantities of compound 2a (0; 0.1; 0.26; 1 nmol, run in quadruplicates, R2 = 0.9443), using MultiQuant 2.1 software (SCIEX).

VPS35 = VPS35 (Mus musculus, UniProt Q9EQH3+Q9QZ88); assay: VPS35 levels in MNs and lumbar SC of treated G93A mice; type: in vivo; set-up: from tissue; host or cells: mouse (lumbar) spinal cord, motor neurons; conditions: 10 mg/kg, day 100
Protocol: We asked whether compound 2a could do the same in G93A MNs, using confocal microscopy to quantify VPS35 fluorescence levels in MNs gated in the ventral horn of lumbar SCs. We observed a significant reduction of VPS35 mean fluorescence intensity (MFI) levels in vehicle-treated G93A mice. […] We next assayed VPS26 MFI levels on parallel sections.
Fluorescence intensity levels of VPS35, VPS26, CI-MPR, Sortilin, CTSD and Ubiquitin were calculated using NHI-Image J software (US National Institutes of Health) according to the following protocol: stacks of confocal images were used to generate the maximal projections using the Leica Application Suite X (2.0.0.14332) software and then postprocessed by NHI-Image J to crop single NeuN^+ MNs from the ventral horn of the spinal cord. We next performed background (calculated on adjacent slices only receiving secondary antibodies) subtraction for each channel, before applying the NHI-Image J mean filter (with radius 2.0 pixels) to calculate mean NeuN fluorescence levels in individual MNs. Using this approach, we established a region of interest (ROI) to gate single MNs. On this ROI, we measured mean fluoresce levels (MFI) of target proteins.
Compound 2a increases VPS35 levels in G93A mice […]

VPS26 = VPS26 / VPS26b levels in MNs and lumbar SC of treated G93A mice; type: in vivo; conditions: 10 mg/kg, day 100
[2] = system: SOD1^G93A-transfected Neuro2a cells; assay: LDH-Glo cytotoxicity assay in SOD1G93A-transfected Neuro2a cells; type: cell-based; conditions: 10 µM
Excerpt: Having observed a marked improvement of viability in SOD1^G93A-transfected Neuro2a cells with VPS35 gain of function, we investigated the effect of VPS35 loss of function. We transfected Neuro2a cells with RNAi plasmids encoding a siRNA duplex for VPS35, to knockdown VPS35 and disrupt the retromer assembly. […] By including Sh56 plasmids in the transfection mix, we worsened this phenotype (Fig. 3d). […] We next assayed cytotoxicity by measuring lactate dehydrogenase (LDH) release with a LDH-Glo™ cytotoxicity assay. Cells were treated with plasmids encoding SOD1^G93A and the Sh56-RNAi sequence with or without compound 2a, while supernatants were used to measure LDH contents. Overexpression of SOD1^G93A increased LDH release by Neuro2aA cells, when compared with control cells (Fig. 3e).
LDH cytotoxicity was run on 96-well plates using LDH-Glo™ Cytotoxicity Assay (Promega). Briefly, Neuro2a cells were transfected with plasmids encoding pCMV-LacZ; pcDNA3.1(+)SOD1G93A[77] with or without VPS35 short interfering plasmids (Sh56) or compound 2a (10 µM). […] In each experiment we calculated %cytotoxicity=Exp.LDHrelease−mediumbackground/MaxLDHreleasecontrol−mediumbackground , and we run parallel positive controls treating cells with 200 µM H2O2. […]

NC(N)=N/N=C/c1cccc(/C=N/N=C(N)N)c1 [compound 2a, phenyl-1,3-bis-guanylhydrazone]
access to the CNS (brain uptake) [1]: confirmed its access to the CNS
VPS35 levels in lumbar SC extracts (WB) (VPS35): increase VPS35 and VPS26b levels
VPS35 mean fluorescence intensity (MFI) in MNs (VPS35): significantly increased
VPS26b levels in lumbar SC extracts (WB) (VPS26): increase VPS35 and VPS26b levels
LDH release ([2]; Neuro2a transfected with SOD1G93A and Sh56 plasmids): high LDH release was observed
LDH release ([2]; SOD1G93A-transfected Neuro2a, 48 h): significantly reduced LDH release
